Experiments:
Assay in all cases: SelectScreen kinase profiling, SSBK ZLyte SP Technology
Type in all cases: biochemical
[1] = biological target: kinase named in conditions (Homo sapiens, UniProt P23443); details: RPS6KB1 (p70S6K), 10 μM
Protocol: (§1) Kinase selectivity screening was performed by Thermo Fisher Scientific (Paisley, U.K.) in their SelectScreen Biochemical Kinase Profiling Service. Assay information and data are presented in the Supporting Information.
(§2) Kinase selectivity screening was performed by ThermoFisher Scientific (Paisley, U.K.) in their SelectScreenTM
(§3) Biochemical Kinase Profiling service .

[2] = biological target: kinase named in conditions (Homo sapiens, UniProt P54756); details: EPHA5, 10 μM
Protocol: as §1, §2, §3

[3] = biological target: kinase named in conditions (Homo sapiens, UniProt P36888); details: FLT3, 10 μM
Protocol: as §1, §2, §3

[4] = biological target: kinase named in conditions (Homo sapiens, UniProt P31751); details: AKT2 (PKB beta), 10 μM
Protocol: as §1, §2, §3

[5] = biological target: kinase named in conditions (Homo sapiens, UniProt Q16644); details: MAPKAPK3, 10 μM
Protocol: as §1, §2, §3

[6] = biological target: kinase named in conditions (Homo sapiens, UniProt O15530)
kinase named in conditions (Homo sapiens, UniProt O15530), sequence (O15530 whole entry): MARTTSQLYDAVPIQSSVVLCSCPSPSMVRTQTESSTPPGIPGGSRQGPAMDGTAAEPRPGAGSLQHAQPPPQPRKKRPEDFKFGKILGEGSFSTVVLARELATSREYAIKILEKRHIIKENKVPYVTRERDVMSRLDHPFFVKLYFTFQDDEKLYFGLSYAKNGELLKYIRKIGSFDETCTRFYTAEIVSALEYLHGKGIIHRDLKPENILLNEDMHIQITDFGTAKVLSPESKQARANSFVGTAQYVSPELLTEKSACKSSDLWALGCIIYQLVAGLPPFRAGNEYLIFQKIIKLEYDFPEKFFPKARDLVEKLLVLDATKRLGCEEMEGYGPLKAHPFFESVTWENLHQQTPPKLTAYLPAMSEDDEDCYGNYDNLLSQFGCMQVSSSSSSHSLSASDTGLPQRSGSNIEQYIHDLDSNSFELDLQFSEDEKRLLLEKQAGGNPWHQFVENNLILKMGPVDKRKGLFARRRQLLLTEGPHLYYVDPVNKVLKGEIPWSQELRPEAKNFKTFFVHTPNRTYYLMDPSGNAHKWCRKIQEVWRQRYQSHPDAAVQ
Protocol: as §1, §2, §3

[7] = biological target: kinase named in conditions (Homo sapiens, UniProt P08631); details: HCK, 10 μM
kinase named in conditions (Homo sapiens, UniProt P08631), sequence (P08631 whole entry): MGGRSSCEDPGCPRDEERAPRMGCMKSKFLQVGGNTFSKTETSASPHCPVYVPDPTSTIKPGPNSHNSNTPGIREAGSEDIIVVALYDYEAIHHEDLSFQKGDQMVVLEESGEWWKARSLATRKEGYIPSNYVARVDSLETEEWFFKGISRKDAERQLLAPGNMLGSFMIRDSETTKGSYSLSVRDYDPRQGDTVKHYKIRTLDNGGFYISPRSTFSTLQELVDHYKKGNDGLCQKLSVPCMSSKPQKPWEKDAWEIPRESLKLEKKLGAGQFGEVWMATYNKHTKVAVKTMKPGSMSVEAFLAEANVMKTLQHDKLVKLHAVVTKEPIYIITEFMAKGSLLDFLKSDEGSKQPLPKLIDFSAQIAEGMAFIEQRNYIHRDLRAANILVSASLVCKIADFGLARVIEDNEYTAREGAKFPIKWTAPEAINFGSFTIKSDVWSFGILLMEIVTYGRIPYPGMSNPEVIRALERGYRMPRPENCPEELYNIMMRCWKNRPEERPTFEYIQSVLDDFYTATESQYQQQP
Protocol: as §1, §2, §3

[8] = biological target: kinase named in conditions (Homo sapiens, UniProt P16591); details: FER, 10 μM
Protocol: as §1, §2, §3

[9] = biological target: kinase named in conditions (Homo sapiens, UniProt Q9NQU5); details: PAK6, 10 μM
Protocol: as §1, §2, §3

[10] = biological target: kinase named in conditions (Homo sapiens, UniProt P00519, G250E); details: ABL1 G250E, 10 μM
Protocol: as §1, §2, §3

[11] = biological target: kinase named in conditions (Homo sapiens, UniProt Q12851); details: MAP4K2 (GCK), 10 μM
Protocol: as §1, §2, §3

[12] = biological target: kinase named in conditions (Homo sapiens, UniProt Q04759); details: PRKCQ (PKC theta), 10 μM
Protocol: as §1, §2, §3

[13] = biological target: kinase named in conditions (Homo sapiens, UniProt O15075); details: DCAMKL1 (DCLK1), 10 μM
kinase named in conditions (Homo sapiens, UniProt O15075), sequence (O15075 whole entry): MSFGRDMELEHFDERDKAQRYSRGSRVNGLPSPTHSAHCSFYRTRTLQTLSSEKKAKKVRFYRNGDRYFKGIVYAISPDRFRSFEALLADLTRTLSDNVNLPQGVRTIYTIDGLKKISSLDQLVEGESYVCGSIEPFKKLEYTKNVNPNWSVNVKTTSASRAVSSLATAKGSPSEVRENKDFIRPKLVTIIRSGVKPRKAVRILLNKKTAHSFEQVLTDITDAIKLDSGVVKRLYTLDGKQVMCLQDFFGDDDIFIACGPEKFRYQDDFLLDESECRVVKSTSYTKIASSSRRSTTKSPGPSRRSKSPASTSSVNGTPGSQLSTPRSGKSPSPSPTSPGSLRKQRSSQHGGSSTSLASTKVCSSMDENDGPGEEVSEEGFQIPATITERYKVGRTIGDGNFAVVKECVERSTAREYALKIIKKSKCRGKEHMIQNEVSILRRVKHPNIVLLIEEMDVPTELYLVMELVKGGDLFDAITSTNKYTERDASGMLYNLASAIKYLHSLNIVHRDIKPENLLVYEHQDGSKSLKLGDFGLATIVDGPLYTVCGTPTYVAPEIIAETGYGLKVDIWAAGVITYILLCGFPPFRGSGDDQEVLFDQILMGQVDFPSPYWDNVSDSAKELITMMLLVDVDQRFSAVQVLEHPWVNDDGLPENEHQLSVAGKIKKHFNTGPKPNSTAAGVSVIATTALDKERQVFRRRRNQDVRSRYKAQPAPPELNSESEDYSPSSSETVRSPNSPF
Protocol: as §1, §2, §3

[14] = biological target: kinase named in conditions (Homo sapiens, UniProt Q9Y6E0); details: STK24 (MST3), 10 μM
Protocol: as §1, §2, §3

[15] = biological target: kinase named in conditions (Homo sapiens, UniProt Q14164); details: IKBKE (IKK epsilon), 10 μM
kinase named in conditions (Homo sapiens, UniProt Q14164), sequence (Q14164 whole entry): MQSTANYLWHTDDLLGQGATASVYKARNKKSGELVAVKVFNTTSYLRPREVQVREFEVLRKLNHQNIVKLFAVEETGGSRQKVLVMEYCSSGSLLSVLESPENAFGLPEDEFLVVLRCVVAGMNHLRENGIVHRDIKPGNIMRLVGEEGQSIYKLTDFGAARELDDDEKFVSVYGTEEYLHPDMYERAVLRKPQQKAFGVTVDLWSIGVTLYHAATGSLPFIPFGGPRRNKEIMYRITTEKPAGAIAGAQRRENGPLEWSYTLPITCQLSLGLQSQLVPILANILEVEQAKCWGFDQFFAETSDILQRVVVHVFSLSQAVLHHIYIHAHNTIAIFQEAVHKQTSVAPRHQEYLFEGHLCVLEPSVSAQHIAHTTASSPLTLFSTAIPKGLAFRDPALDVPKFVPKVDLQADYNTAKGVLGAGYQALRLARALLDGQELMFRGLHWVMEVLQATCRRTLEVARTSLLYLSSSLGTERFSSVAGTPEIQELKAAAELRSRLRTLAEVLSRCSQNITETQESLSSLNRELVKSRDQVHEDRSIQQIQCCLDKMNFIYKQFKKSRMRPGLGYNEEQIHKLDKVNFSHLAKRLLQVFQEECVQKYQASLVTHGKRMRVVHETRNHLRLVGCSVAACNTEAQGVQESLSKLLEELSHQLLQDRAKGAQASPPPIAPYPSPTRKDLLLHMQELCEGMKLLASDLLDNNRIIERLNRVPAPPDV
Protocol: as §1, §2, §3

[16] = biological target: kinase named in conditions (Homo sapiens, UniProt Q9H422); details: HIPK3 (YAK1), 10 μM
kinase named in conditions (Homo sapiens, UniProt Q9H422), sequence (Q9H422 whole entry): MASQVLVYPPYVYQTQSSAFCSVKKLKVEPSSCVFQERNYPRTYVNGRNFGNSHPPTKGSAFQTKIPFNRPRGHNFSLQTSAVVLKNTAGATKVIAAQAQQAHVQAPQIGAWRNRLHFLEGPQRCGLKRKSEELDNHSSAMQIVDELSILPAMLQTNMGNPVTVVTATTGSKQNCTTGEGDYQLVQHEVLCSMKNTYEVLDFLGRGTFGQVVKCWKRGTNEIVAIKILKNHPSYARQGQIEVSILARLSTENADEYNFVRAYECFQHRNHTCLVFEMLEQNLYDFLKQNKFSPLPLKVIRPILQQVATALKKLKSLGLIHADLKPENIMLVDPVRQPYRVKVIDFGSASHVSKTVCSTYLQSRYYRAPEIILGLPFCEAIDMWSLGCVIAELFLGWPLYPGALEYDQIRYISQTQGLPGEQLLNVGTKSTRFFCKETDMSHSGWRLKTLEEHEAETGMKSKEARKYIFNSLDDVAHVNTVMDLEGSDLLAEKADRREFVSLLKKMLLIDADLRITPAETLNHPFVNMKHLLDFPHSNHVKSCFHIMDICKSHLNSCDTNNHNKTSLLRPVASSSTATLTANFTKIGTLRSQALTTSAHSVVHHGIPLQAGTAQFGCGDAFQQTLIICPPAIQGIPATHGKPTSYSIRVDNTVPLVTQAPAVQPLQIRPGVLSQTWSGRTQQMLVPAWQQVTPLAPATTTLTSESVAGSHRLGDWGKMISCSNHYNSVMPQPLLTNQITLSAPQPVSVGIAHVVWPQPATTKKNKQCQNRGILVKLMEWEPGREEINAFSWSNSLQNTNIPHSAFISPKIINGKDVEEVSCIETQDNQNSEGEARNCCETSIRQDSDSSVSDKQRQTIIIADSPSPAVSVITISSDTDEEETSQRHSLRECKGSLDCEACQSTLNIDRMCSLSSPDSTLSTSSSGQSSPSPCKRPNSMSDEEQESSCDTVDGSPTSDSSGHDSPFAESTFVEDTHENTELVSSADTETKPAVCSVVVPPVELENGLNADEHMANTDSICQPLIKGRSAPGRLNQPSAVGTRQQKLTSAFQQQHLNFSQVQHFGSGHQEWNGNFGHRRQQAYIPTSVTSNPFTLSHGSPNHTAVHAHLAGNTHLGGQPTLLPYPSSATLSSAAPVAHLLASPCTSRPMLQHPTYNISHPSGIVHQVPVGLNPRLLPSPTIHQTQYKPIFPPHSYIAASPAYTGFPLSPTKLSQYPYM
Protocol: as §1, §2, §3

[17] = biological target: kinase named in conditions (Homo sapiens, UniProt P17252); details: PRKCA (PKC alpha), 10 μM
Protocol: as §1, §2, §3

[18] = biological target: kinase named in conditions (Homo sapiens, UniProt P49674); details: CSNK1E (CK1 epsilon), 10 μM
Protocol: as §1, §2, §3

[19] = biological target: kinase named in conditions (Homo sapiens, UniProt Q02750); details: MAP2K1 (MEK1), 10 μM
Protocol: as §1, §2, §3

[20] = biological target: kinase named in conditions (Homo sapiens, UniProt Q9H1R3); details: MYLK2 (skMLCK), 10 μM
Protocol: as §1, §2, §3

[21] = biological target: kinase named in conditions (Homo sapiens, UniProt Q5VT25); details: CDC42 BPA (MRCKA), 10 μM
Protocol: as §1, §2, §3

[22] = biological target: kinase named in conditions (Homo sapiens, UniProt Q00535)
kinase named in conditions (Homo sapiens, UniProt Q00535), sequence (Q00535 whole entry): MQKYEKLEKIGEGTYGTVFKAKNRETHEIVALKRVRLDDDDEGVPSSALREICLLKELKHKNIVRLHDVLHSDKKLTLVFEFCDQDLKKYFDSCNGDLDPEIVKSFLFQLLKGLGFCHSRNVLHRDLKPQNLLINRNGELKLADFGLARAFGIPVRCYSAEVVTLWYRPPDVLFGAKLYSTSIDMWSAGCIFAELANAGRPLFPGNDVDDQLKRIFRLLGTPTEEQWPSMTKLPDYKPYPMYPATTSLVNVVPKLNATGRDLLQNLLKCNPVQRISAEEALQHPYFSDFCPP
Protocol: as §1, §2, §3

[23] = biological target: kinase named in conditions (Homo sapiens, UniProt O96017); details: CHEK2 (CHK2), 10 μM
kinase named in conditions (Homo sapiens, UniProt O96017), sequence (O96017 whole entry): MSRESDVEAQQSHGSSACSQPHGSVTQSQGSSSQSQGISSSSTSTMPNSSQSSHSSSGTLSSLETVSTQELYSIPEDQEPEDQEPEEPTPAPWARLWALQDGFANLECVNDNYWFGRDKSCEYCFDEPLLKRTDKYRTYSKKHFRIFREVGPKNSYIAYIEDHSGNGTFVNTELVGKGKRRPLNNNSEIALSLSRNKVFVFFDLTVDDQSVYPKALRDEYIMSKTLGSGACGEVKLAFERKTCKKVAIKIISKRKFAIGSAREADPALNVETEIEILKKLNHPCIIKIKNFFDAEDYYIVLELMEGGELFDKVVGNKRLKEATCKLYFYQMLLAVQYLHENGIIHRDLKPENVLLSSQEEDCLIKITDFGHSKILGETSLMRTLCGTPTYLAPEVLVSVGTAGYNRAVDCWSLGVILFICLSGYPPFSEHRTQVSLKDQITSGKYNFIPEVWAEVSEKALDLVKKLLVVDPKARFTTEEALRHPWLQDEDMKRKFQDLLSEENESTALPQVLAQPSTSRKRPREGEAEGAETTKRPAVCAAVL
Protocol: as §1, §2, §3

[24] = biological target: kinase named in conditions (Homo sapiens, UniProt P29317); details: EPHA2, 10 μM
Protocol: as §1, §2, §3

[25] = biological target: kinase named in conditions (Homo sapiens, UniProt P07949); details: RET, 10 μM
Protocol: as §1, §2, §3

[26] = biological target: kinase named in conditions (Homo sapiens, UniProt P08069); details: IGF1R, 10 μM
Protocol: as §1, §2, §3

[27] = biological target: kinase named in conditions (Homo sapiens, UniProt Q9UPE1); details: STK23 (MSSK1), 10 μM
Protocol: as §1, §2, §3

[28] = biological target: kinase named in conditions (Homo sapiens, UniProt O15264); details: MAPK13 (p38 delta), 10 μM
kinase named in conditions (Homo sapiens, UniProt O15264), sequence (O15264 whole entry): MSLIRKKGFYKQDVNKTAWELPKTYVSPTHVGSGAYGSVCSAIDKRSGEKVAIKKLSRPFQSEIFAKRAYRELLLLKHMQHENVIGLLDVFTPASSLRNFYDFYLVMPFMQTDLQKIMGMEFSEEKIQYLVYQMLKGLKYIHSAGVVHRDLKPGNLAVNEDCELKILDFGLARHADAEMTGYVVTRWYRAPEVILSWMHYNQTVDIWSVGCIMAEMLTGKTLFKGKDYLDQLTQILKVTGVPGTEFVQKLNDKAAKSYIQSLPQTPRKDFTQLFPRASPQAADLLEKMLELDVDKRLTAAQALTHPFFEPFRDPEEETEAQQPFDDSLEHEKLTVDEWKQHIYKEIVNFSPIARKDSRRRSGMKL
Protocol: as §1, §2, §3

[29] = biological target: kinase named in conditions (Homo sapiens, UniProt P43250); details: GRK6, 10 μM
Protocol: as §1, §2, §3

[30] = biological target: kinase named in conditions (Homo sapiens, UniProt P49759); details: CLK1, 10 μM
Protocol: as §1, §2, §3

[31] = biological target: kinase named in conditions (Homo sapiens, UniProt P07949, S891A); details: RET S891A, 10 μM
Protocol: as §1, §2, §3

[32] = biological target: kinase named in conditions (Homo sapiens, UniProt P78527); details: DNA-PK, 10 μM
Protocol: as §1, §2, §3

[33] = biological target: kinase named in conditions (Homo sapiens, UniProt Q9P286); details: PAK7 (KIAA1264), 10 μM
Protocol: as §1, §2, §3

[34] = biological target: kinase named in conditions (Homo sapiens, UniProt P06239); details: LCK, 10 μM
Protocol: as §1, §2, §3

FC(F)(F)c1c(Cl)ccc(-n2ccnn2)c1Cl [8l, 1-(2,4-Dichloro-3-(trifluoromethyl)phenyl)-1H-1,2,3-triazole]
inhibition at 10 µM [1]: 9%
inhibition at 10 µM [2]: 0%
inhibition at 10 µM [3]: 15%
inhibition at 10 µM [4]: 7%
inhibition at 10 µM [5]: 1%
inhibition at 10 µM ([6]; PDK1, 10 μM): 4%
inhibition at 10 µM ([6]; PDK1 Direct, 10 μM): -2%
inhibition at 10 µM [7]: 10%
inhibition at 10 µM [8]: 2%
inhibition at 10 µM [9]: 15%
inhibition at 10 µM [10]: 8%
inhibition at 10 µM [11]: -3%
inhibition at 10 µM [12]: -11%
inhibition at 10 µM [13]: 3%
inhibition at 10 µM [14]: 5%
inhibition at 10 µM [15]: 11%
inhibition at 10 µM [16]: 3%
inhibition at 10 µM [17]: -18%
inhibition at 10 µM [18]: 1%
inhibition at 10 µM [19]: -5%
inhibition at 10 µM [20]: 15%
inhibition at 10 µM [21]: -3%
inhibition at 10 µM ([22]; CDK5/p25, 10 μM): 1%
inhibition at 10 µM ([22]; CDK5/p35, 10 μM): 7%
inhibition at 10 µM [23]: 8%
inhibition at 10 µM [24]: 9%
inhibition at 10 µM [25]: 7%
inhibition at 10 µM [26]: -4%
inhibition at 10 µM [27]: 0%
inhibition at 10 µM [28]: -2%
inhibition at 10 µM [29]: 2%
inhibition at 10 µM [30]: 0%
inhibition at 10 µM [31]: 10%
inhibition at 10 µM [32]: 0%
inhibition at 10 µM [33]: 8%
inhibition at 10 µM [34]: 33%

— publication PMC9150124, “Design of a Potent, Selective, and Brain-Penetrant Inhibitor of Wnt-Deactivating Enzyme Notum by Optimization of a Crystallographic Fragment Hit” (Journal of Medicinal Chemistry, 2022)
